Like-named read-outs stand apart in the source and are kept apart here.
How the values were obtained:
[1] = target: human RORγt ligand binding domain (RORγt LBD) (Homo sapiens (Human), UniProt P51449); assay: RORγt ThermoFluor® assay (thermal shift binding); settings: read-out: ThermoFluor® Assay, Kd
Method in brief: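 Binding was inferred from thermal stabilisation (ΔTm) of the E. coli-expressed RORγt LBD (0.065 mg/mL), monitored by 1,8-ANS (60 μM) emission at 500 nm during a 1 °C/min ramp. Buffer was Hepes 100 mM pH 7.0 with NaCl, GSH and Tween-20.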

full-length human RORγt = full-length human RORγt (Homo sapiens (Human), UniProt P51449); assay: RORγt (full-length human) reporter assay, Conditions B or C; assay type: cell-based; settings: Conditions B or C; for RORγt (FL) Reporter Assay B or C, % inhibition (value marked *): marked *: footnote not given; for RORγt (FL) Reporter Assay B or C, % inhibition (value marked ***): marked ***: footnote not given
full-length human RORγt, sequence (P51449 other isoform, or with tags, fused parts or gaps): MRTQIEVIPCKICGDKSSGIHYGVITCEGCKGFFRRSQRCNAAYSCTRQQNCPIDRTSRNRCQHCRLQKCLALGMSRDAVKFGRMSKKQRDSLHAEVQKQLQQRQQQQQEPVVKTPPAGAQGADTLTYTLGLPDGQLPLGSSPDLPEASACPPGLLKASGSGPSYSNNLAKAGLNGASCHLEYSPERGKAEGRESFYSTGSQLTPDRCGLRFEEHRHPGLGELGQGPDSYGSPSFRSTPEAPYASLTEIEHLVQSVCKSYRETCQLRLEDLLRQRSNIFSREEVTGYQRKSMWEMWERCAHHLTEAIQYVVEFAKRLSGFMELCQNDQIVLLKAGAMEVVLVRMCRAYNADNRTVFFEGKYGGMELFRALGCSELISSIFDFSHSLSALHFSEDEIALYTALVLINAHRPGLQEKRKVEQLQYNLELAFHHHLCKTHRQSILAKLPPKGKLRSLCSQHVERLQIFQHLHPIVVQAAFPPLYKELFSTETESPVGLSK
Method in brief: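 Readout is dual luciferase: firefly (GAL4-driven) normalized to DMSO-only and saturating-reference controls, then to CMV-Renilla. Full-length human RORγt fused to GAL4-DBD was transiently expressed in HEK293T; compound exposure ran overnight (16-20 h) starting 4-6 h after transfection, final FBS 1.3%, DMSO 0.1%.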

[2] = read-out: RORγt (FL) Reporter Assay B or C, IC50
[3] = RORγt (FL) Reporter Assay B or C, IC50 (μM)

human RORγt ligand binding domain (RORγt LBD), sequence (P51449 other isoform, or with tags, fused parts or gaps): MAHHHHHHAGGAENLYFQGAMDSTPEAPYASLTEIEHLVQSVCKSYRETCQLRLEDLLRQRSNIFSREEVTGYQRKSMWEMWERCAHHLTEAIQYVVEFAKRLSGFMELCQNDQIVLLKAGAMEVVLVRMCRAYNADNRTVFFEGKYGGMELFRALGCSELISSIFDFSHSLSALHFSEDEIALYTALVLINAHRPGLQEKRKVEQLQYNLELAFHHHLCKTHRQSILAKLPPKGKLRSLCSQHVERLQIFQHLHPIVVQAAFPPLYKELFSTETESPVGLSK

Row | SMILES | Kd [1] | RORγt (FL) Reporter Assay B or C, % inhibition (value marked *) (full-length human RORγt) | IC50 (full-length human RORγt; [2]) | RORγt (FL) Reporter Assay B or C, % inhibition (value marked ***) (full-length human RORγt) | IC50 (full-length human RORγt; [3])
1 | C[C@H]1CCCN1C(=O)c1nc(C(=O)NC2CS(=O)(=O)C2)sc1-c1cnc(NC2CCCC2)cc1C(F)F [Example 61, (S)-5-(6-(Cyclopentylamino)-4-(difluoromethyl)pyridin-3-yl)-N-(1,1-dioxidothietan-3-yl)-4-(2-methylpyrrolidine-1-carbonyl)thiazole-2-carboxamide] | 7 nM | 103* % | 0.013 µM |  | 
2 | C[C@H]1CCCN1C(=O)c1nc(C(=O)NCC2(O)CCC2)sc1-c1cnc(NC2CCCC2)cc1C(F)F [Example 71, (S)-5-(6-(Cyclopentylamino)-4-(difluoromethyl)pyridin-3-yl)-N-((1-hydroxycyclobutyl)methyl)-4-(2-methylpyrrolidine-1-carbonyl)thiazole-2-carboxamide] | 3.7 nM | 111* % | 0.013 µM |  | 
3 | C[C@H]1CCCN1C(=O)c1nc(C(=O)N[C@H]2C[C@H](S(C)(=O)=O)C2)sc1-c1cnc(NC2CCCC2)cc1C(F)F [Example 72, 5-(6-(Cyclopentylamino)-4-(difluoromethyl)pyridin-3-yl)-4-((S)-2-methylpyrrolidine-1-carbonyl)-N-((1r,3r)-3-(methylsulfonyl)cyclobutyl)thiazole-2-carboxamide] | 35 nM | 104* % | 0.089 µM |  | 
4 | CC(C)(O)CNC(=O)c1nc(C(=O)N2C3CCC2CC3)c(-c2cnc(NC(C)(C)C)cc2C(F)(F)F)s1 [Example 79, 4-((1s,4s)-7-Azabicyclo[2.2.1]heptane-7-carbonyl)-5-(6-(tert-butylamino)-4-(trifluoromethyl)pyridin-3-yl)-N-(2-hydroxy-2-methylpropyl)thiazole-2-carboxamide] | 1.2 nM | 111* % | 0.0083 µM |  | 
5 | C[C@H](Nc1cc(C(F)(F)F)c(-c2sc(C(=O)NCC(C)(C)O)nc2C(=O)N2C3CCC2CC3)cn1)C(F)(F)F [Example 82, 4-((1s,4s)-7-Azabicyclo[2.2.1]heptane-7-carbonyl)-N-(2-hydroxy-2-methylpropyl)-5-(4-(trifluoromethyl)-6-(((S)-1,1,1-trifluoropropan-2-yl)amino)pyridin-3-yl)thiazole-2-carboxamide] | 4.8 nM | 117* % |  |  | 0.079 µM
6 | CC(C)(C)CNc1cc(C(F)(F)F)c(-c2sc(C(=O)NCC(C)(C)O)nc2C(=O)N2C3CCC2CC3)cn1 [Example 84, 4-((1s,4s)-7-Azabicyclo[2.2.1]heptane-7-carbonyl)-N-(2-hydroxy-2-methylpropyl)-5-(6-(neopentylamino)-4-(trifluoromethyl)pyridin-3-yl)thiazole-2-carboxamide] | 1.2 nM | 136* % | 0.018 µM |  | 
7 | CC[C@H](Nc1cc(C(F)F)c(-c2sc(C(=O)NCC(C)(C)O)nc2C(=O)N2C3CCC2CC3)cn1)C(F)(F)F [Example 89, 4-((1s,4s)-7-Azabicyclo[2.2.1]heptane-7-carbonyl)-5-(4-(difluoromethyl)-6-(((S)-1,1,1-trifluorobutan-2-yl)amino)pyridin-3-yl)-N-(2-hydroxy-2-methylpropyl)thiazole-2-carboxamide] | 5.2 nM | 100* % |  |  | 0.024 µM

The next lines start with results.

Row | Kd [1] | RORγt (FL) Reporter Assay B or C, % inhibition (value marked *) (full-length human RORγt) | IC50 (full-length human RORγt; [2]) | RORγt (FL) Reporter Assay B or C, % inhibition (value marked ***) (full-length human RORγt) | SMILES | IC50 (full-length human RORγt; [3])
8 | 11 nM | 104* % | 0.074 µM |  | C[C@H]1CCCN1C(=O)c1nc(C(=O)NCC2(O)COC2)sc1-c1cnc(NC2CCCC2)cc1C(F)F [Example 73, (S)-5-(6-(Cyclopentylamino)-4-(difluoromethyl)pyridin-3-yl)-N-((3-hydroxyoxetan-3-yl)methyl)-4-(2-methylpyrrolidine-1-carbonyl)thiazole-2-carboxamide] | 
9 | 73 nM | 101* % | 0.032 µM |  | C[C@H]1CCCN1C(=O)c1nc(C(=O)N[C@H]2C[C@H](O)C2)sc1-c1cnc(NC2CCCC2)cc1C(F)F [Example 74, 5-(6-(Cyclopentylamino)-4-(difluoromethyl)pyridin-3-yl)-N-((1r,3s)-3-hydroxycyclobutyl)-4-((S)-2-methylpyrrolidine-1-carbonyl)thiazole-2-carboxamide] | 
10 | 1.3 nM | 108* % | 0.017 µM |  | C[C@H]1CCCN1C(=O)c1nc(C(=O)NCC(C)(C)O)sc1-c1cnc(NC2(C)CCC2)cc1C(F)(F)F [Example 77, (S)—N-(2-Hydroxy-2-methylpropyl)-5-(6-((1-methylcyclobutyl)amino)-4-(trifluoromethyl)pyridin-3-yl)-4-(2-methylpyrrolidine-1-carbonyl)thiazole-2-carboxamide] | 
11 | 0.19 nM | 111* % | 0.0047 µM |  | C[C@H]1CCCCN1C(=O)c1nc(C(=O)NCC(C)(C)O)sc1-c1cnc(NC(C)(C)C)cc1C(F)(F)F [Example 80, (S)-5-(6-(tert-Butylamino)-4-(trifluoromethyl)pyridin-3-yl)-N-(2-hydroxy-2-methylpropyl)-4-(2-methylpiperidine-1-carbonyl)thiazole-2-carboxamide] | 
12 | 0.17 nM | 105* % | 0.0093 µM |  | C[C@H]1CCCCN1C(=O)c1nc(C(=O)NCC(C)(C)O)sc1-c1cnc(NC2(C)CCC2)cc1C(F)(F)F [Example 81, (S)—N-(2-Hydroxy-2-methylpropyl)-5-(6-((1-methylcyclobutyl)amino)-4-(trifluoromethyl)pyridin-3-yl)-4-(2-methylpiperidine-1-carbonyl)thiazole-2-carboxamide] | 
13 | 0.55 nM |  | 0.0069 µM | 110*** % | C[C@H]1CC(F)(F)CN1C(=O)c1nc(C(=O)NCC(C)(C)O)sc1-c1cnc(NC(C)(C)C)cc1C(F)(F)F [Example 83, (S)-5-(6-(tert-Butylamino)-4-(trifluoromethyl)pyridin-3-yl)-4-(4,4-difluoro-2-methylpyrrolidine-1-carbonyl)-N-(2-hydroxy-2-methylpropyl)thiazole-2-carboxamide] | 
14 | 0.53 nM |  | 0.027 µM | 128*** % | C[C@H]1CC(F)(F)CN1C(=O)c1nc(C(=O)NCC(C)(C)O)sc1-c1cnc(NCC(C)(C)C)cc1C(F)(F)F [Example 85, (S)-4-(4,4-Difluoro-2-methylpyrrolidine-1-carbonyl)-N-(2-hydroxy-2-methylpropyl)-5-(6-(neopentylamino)-4-(trifluoromethyl)pyridin-3-yl)thiazole-2-carboxamide] | 
15 | 0.19 nM | 138* % | 0.01 µM |  | C[C@H]1CCCCN1C(=O)c1nc(C(=O)NCC(C)(C)O)sc1-c1cnc(NC(C)(C)C2CC2)cc1C(F)F [Example 88, (S)-5-(6-((2-Cyclopropylpropan-2-yl)amino)-4-(difluoromethyl)pyridin-3-yl)-N-(2-hydroxy-2-methylpropyl)-4-(2-methylpiperidine-1-carbonyl)thiazole-2-carboxamide] | 
